Like-named read-outs stand apart in the source and are kept apart here.
Legend:
[1] = system: metastases; conditions: cited from earlier work
[2] = Whole-body planar and SPECT/CT imaging-based dosimetry of normal organs (kidneys, liver, parotid and submandibular glands); format: in vivo, human
[3] = system: tumor lesions (bone metastases or lymph node metastases); assay: Whole-body planar and SPECT/CT imaging-based dosimetry of tumor lesions; format: in vivo, human; conditions: n = 17 tumor lesions
[4] = cited from earlier work
[5] = all metastases, ref Okamoto et al. [53]
[6] = kidneys, mean ± SD, 6 mCRPC patients
[7] = liver, mean ± SD, 6 mCRPC patients
[8] = parotid gland, mean ± SD, 6 mCRPC patients
[9] = submandibular gland, mean ± SD, 6 mCRPC patients
[10] = bone metastases, ref Violet et al. [52]
[11] = lymph node metastases, ref Violet et al. [52]

Question: For `O=C([O-])CC[C@H](NC(=O)N[C@@H](CCCCNC(=O)CCCCCCC(=O)NCCCC[C@@H](NC(=O)[C@@H](Cc1ccccc1)NC(=O)[C@@H](Cc1ccc(O)c(I)c1)NC(=O)CC[C@H](C(=O)[O-])N1CCN(CC(=O)[O-])CCN(CC(=O)[O-])CCN(CC(=O)[O-])CC1)C(=O)[O-])C(=O)[O-])C(=O)[O-].[177Lu+3].[H+].[H+].[H+].[H+].[H+]` [[^177Lu]Lu-PSMA I&T], which “Absorbed dose, range” value [1, 5] is on record?
Answer: Its value is 0.22 - 12.03 Gy/GBq.

Question: What about the Mean absorbed dose [1, 5] of the same compound?
Answer: The Mean absorbed dose was 3.2 ± 2.6 Gy/GBq.

Question: Which results are given for [^177Lu]Lu-PSMA-617?
Answer: A (% injected A0), monoexponential curve-fitting parameter [2, 6]: 4.80 ± 1.94 % injected A0; Absorbed dose [2, 6]: 0.545 ± 0.231 mGy/MBq; Mean absorbed dose [2, 6]: 0.545 ± 0.231 Gy/GBq; TIAC (time-integrated activity coefficient) [2, 6]: 1.59 ± 0.68 h; λ, monoexponential curve-fitting parameter [2, 6]: 0.028 ± 0.011 h⁻¹; A (% injected A0), monoexponential curve-fitting parameter [2, 7]: 2.28 ± 0.88 % injected A0; Absorbed dose [2, 7]: 0.103 ± 0.057 mGy/MBq; TIAC (time-integrated activity coefficient) [2, 7]: 1.65 ± 1.36 h; λ, monoexponential curve-fitting parameter [2, 7]: 0.030 ± 0.009 h⁻¹; A (% injected A0), monoexponential curve-fitting parameter [2, 8]: 0.53 ± 0.20 % injected A0; Absorbed dose [2, 8]: 0.333 ± 0.194 mGy/MBq; TIAC (time-integrated activity coefficient) [2, 8]: 0.13 ± 0.09 h; λ, monoexponential curve-fitting parameter [2, 8]: 0.031 ± 0.005 h⁻¹; Individual absorbed dose ([2]; patient 1 (pre-treatment N, C, L, R), kidneys): 0.666 mGy/MBq; Individual absorbed dose ([2]; patient 1 (pre-treatment N, C, L, R), liver): 0.199 mGy/MBq; Individual absorbed dose ([2]; patient 1 (pre-treatment N, C, L, R), parotid gland): 0.398 mGy/MBq; Individual absorbed dose ([2]; patient 1 (pre-treatment N, C, L, R), submandibular gland): 0.309 mGy/MBq; Individual absorbed dose ([2]; patient 2 (pre-treatment N, C, L, A, R), kidneys): 0.492 mGy/MBq; Individual absorbed dose ([2]; patient 2 (pre-treatment N, C, L, A, R), liver): 0.138 mGy/MBq; Individual absorbed dose ([2]; patient 2 (pre-treatment N, C, L, A, R), parotid gland): 0.150 mGy/MBq; Individual absorbed dose ([2]; patient 2 (pre-treatment N, C, L, A, R), submandibular gland): 0.190 mGy/MBq; Individual absorbed dose ([2]; patient 3 (pre-treatment N, C, L, A, R), kidneys): 0.906 mGy/MBq; Individual absorbed dose ([2]; patient 3 (pre-treatment N, C, L, A, R), liver): 0.069 mGy/MBq; Individual absorbed dose ([2]; patient 3 (pre-treatment N, C, L, A, R), parotid gland): 0.146 mGy/MBq; Individual absorbed dose ([2]; patient 3 (pre-treatment N, C, L, A, R), submandibular gland): 0.112 mGy/MBq; Individual absorbed dose ([2]; patient 4 (pre-treatment N, C, L, A, R), kidneys): 0.674 mGy/MBq; Individual absorbed dose ([2]; patient 4 (pre-treatment N, C, L, A, R), liver): 0.125 mGy/MBq; Individual absorbed dose ([2]; patient 4 (pre-treatment N, C, L, A, R), parotid gland): 0.703 mGy/MBq; Individual absorbed dose ([2]; patient 4 (pre-treatment N, C, L, A, R), submandibular gland): 0.664 mGy/MBq; Individual absorbed dose ([2]; patient 5 (pre-treatment N, C, L), kidneys): 0.252 mGy/MBq; Individual absorbed dose ([2]; patient 5 (pre-treatment N, C, L), liver): 0.037 mGy/MBq; Individual absorbed dose ([2]; patient 5 (pre-treatment N, C, L), parotid gland): 0.217 mGy/MBq; Individual absorbed dose ([2]; patient 5 (pre-treatment N, C, L), submandibular gland): 0.178 mGy/MBq; Individual absorbed dose ([2]; patient 6 (pre-treatment N, C, L, A), kidneys): 0.278 mGy/MBq; Individual absorbed dose ([2]; patient 6 (pre-treatment N, C, L, A), liver): 0.049 mGy/MBq; Individual absorbed dose ([2]; patient 6 (pre-treatment N, C, L, A), parotid gland): 0.387 mGy/MBq; Individual absorbed dose ([2]; patient 6 (pre-treatment N, C, L, A), submandibular gland): 0.259 mGy/MBq; A (% injected A0), monoexponential curve-fitting parameter [2, 9]: 0.41 ± 0.26 % injected A0; Absorbed dose [2, 9]: 0.285 ± 0.180 mGy/MBq; TIAC (time-integrated activity coefficient) [2, 9]: 0.06 ± 0.05 h; λ, monoexponential curve-fitting parameter [2, 9]: 0.030 ± 0.007 h⁻¹; Absorbed dose, range [1, 10]: 0.41-10.71 Gy/GBq; Mean absorbed dose [1, 10]: 5.28 Gy/GBq; Absorbed dose, range [1, 11]: 0.52-16.23 Gy/GBq; Mean absorbed dose [1, 11]: 3.91 Gy/GBq; Absorbed dose of the tumor lesions, range ([3]; 6 mCRPC patients): 0.42 - 12.91 Gy/GBq; Mean absorbed dose of the tumor lesions ([3]; 6 mCRPC patients, mean ± SD): 2.59 ± 3.30 Gy/GBq; Effective half-life in tumor lesions (mean) ([3]; mean ± SD): 35.3 ± 6.3 h; Patients with grade 1 / 2 xerostomia ([4]; REALITY study, ref [16]): 20.9%; Patients with grade 1 / 2 xerostomia ([4]; VISION study, ref [10]): 38.8%
